Series [1] has as its system H1N1 (rgA/WSN/33) WT. The conditions noted are these: cited from earlier work.
The conditions of series [2]: BALB/c, mouse, in vivo; for C24 (plasma concentration at 24 h): sc.
Series [3] concerns H1N1pdm09 (A/Osaka/129/2009) WT. As to the kind of experiment: microbe, parasite or virus in culture. The series is classed as cell-based. The following applies: Influenza A virus, read-out: EC50 Mean.
For series [4] the following is noted: hamster, in vivo, sc.
Series [5] concerns H3N2 (rgA/Victoria/3/75) WT. The following applies: cited from earlier work.
In another series the test system is H1N1pdm09.WT. The conditions noted are these: mouse, in vivo.
For series [6], the system named is H3N2 (rgA/Victoria/3/75) WT. The conditions noted are these: cited from earlier work. This is another data set of the same source.
Series [7] relates to H1N1 (rgA/WSN/33) WT. The following applies: cited from earlier work. This is another data set of the same source.

The structures appear in SMILES notation. Read-outs that look alike come from different tables or passages of the source.

Take `O=C1c2c(O)c(=O)ccn2N([C@@H]2c3ccccc3SCc3c2ccc(F)c3F)[C@@H]2COCCN12` [baloxavir acid]: the 50% effective concentration (EC50) (commonly the concentration that produces a half-maximal response) in the series on H1N1 (rgA/WSN/33) WT [1] is 0.42 nM; in series [3], 0.61 nM; in series [5] it was 1.13 nM. For the same compound, in series [2], the “C24 of a simulated dose” value is recorded as 78.3 ng/mL. Also, the “C24 (plasma concentration at 24 h)” value is recorded as 47.4 ± 4.9 ng/mL in series [2] (20 mg/kg), 70.8 ± 13.9 ng/mL in series [2] (30 mg/kg), 17.3 ± 3.3 ng/mL in series [4] (10 mg/kg) and 45.7 ± 19.7 ng/mL in series [4] (30 mg/kg). Moreover, the Lung virus titer result with H1N1pdm09.WT was “almost to the LLOQ”.

As for `CCC(CC)O[C@@H]1C=C(C(=O)O)C[C@H](N)[C@H]1NC(C)=O` [oseltamivir acid], the values for the half-maximal inhibitory concentration (IC50) (in series [6]; in the series with H1N1 (rgA/WSN/33) WT [7]) were 0.13 nM and 0.8 nM, respectively.

Take `CCOC(=O)C1=C[C@@H](OC(CC)CC)[C@H](NC(C)=O)[C@@H](N)C1` [oseltamivir phosphate]: in the series on H1N1pdm09.WT, the “Lung virus titers vs vehicle” value is reported as “statistically lower compared with vehicle”.

These data come from PMC10222987 (Viruses, 2023).
